“Also recorded” adds a separate entry of the source.

The data set can be described thus: Trehalose crystallization inhibitory effect of coexisting saccharides in a trehalose syrup over the water solubility (Experiment 2). The data set is classed as physicochemical. The following applies: trehalose dissolved in an amount over the water solubility; summary of Table 2. How it is done: Trehalose was dissolved by heating in water in an amount of 1.5-times the water solubility at 10° C., and the trehalose solution was allowed to stand at a relatively-cold place for checking the trehalose crystallization inhibitory effect by saccharides. […] With this relationship, testing solutions were prepared by dissolving by heating in 100 parts by weight of water in a respective glass beaker 83 parts by weight of trehalose, and a saccharide in an amount of 10% to the trehalose, i.e., 8.3 parts by weight of the saccharide selected from the group consisting of glucose, maltose, isomaltose, lactose, maltotriose, panose, maltotetraose, sorbitol, maltitol, maltotriitol, sucrose, raffinose, erlose, saccharides such as α-glucosyltrehalose or monoglucosyltrehalose, α-maltosyltrehalose or diglucosyltrehalose, and α-maltotriosyltrehalose or triglucosyltrehalose as disclosed in Japanese Patent Kokai No.143,876/95 by the present applicant; a saccharide such as α-isomaltosyl-α-glucoside or monoglucosyltrehalose as disclosed in Japanese Patent Kokai No.217,784/96 by the same applicant; and a saccharide such as α-maltosyl-α-maltoside or diglucosyltrehalose as disclosed in Japanese Patent Application No.167,486/94 by the same applicant. Each solution was allowed to stand in a thermostatic place kept at 5, 10 or 15° C. for one week, followed by macroscopically observing the presence of trehalose crystal for evaluating the trehalose crystallization inhibitory effect by the saccharides.
With `OC[C@H]1O[C@H](OC[C@H]2O[C@H](O[C@H]3O[C@H](CO)[C@@H](O)[C@H](O)[C@H]3O)[C@H](O)[C@@H](O)[C@@H]2O)[C@H](O)[C@@H](O)[C@@H]1O` [α-Isomaltosyl-α-glucoside, α-isomaltosyl-α-glucoside], the “Trehalose crystallization inhibitory effect (in words)” value is “specifically and effectively inhibited”.
With `OC[C@H]1O[C@H](O[C@H]2[C@H](O)[C@@H](O)[C@@H](O[C@H]3O[C@H](CO)[C@@H](O[C@H]4O[C@H](CO)[C@@H](O)[C@H](O)[C@H]4O)[C@H](O)[C@H]3O)O[C@@H]2CO)[C@H](O)[C@@H](O)[C@@H]1O` [α-Maltosyl-α-maltoside, α-maltosyl-α-maltoside] the entry was “specifically and effectively inhibited”; with `OC[C@H]1O[C@H](O[C@H]2O[C@H](CO)[C@@H](O[C@H]3O[C@H](CO)[C@@H](O[C@H]4O[C@H](CO)[C@@H](O[C@H]5O[C@H](CO)[C@@H](O)[C@H](O)[C@H]5O)[C@H](O)[C@H]4O)[C@H](O)[C@H]3O)[C@H](O)[C@H]2O)[C@H](O)[C@@H](O)[C@@H]1O` [α-Maltotriosyltrehalose, α-maltotriosyltrehalose], “specifically and effectively inhibited; also recorded: relatively-low trehalose crystallization inhibitory effect”.
